Experimental data as given in patent publication US10106538B2, “Inhibitors of protein kinases” (PRINCETON DRUG DISCOVERY INC, priority 2015, dated 2018).

Columns and labels:
Assay in all cases: Off-chip Mobility Shift Assay (MSA) kinase inhibition
Assay type in all cases: biochemical
PKD2 = biological target: T1, PKD2 (Homo sapiens, UniProt Q9BZL6); details: inhibitor concentration 1 μM
T1 construct: purchased Carna Biosciences
Description: (§1) Off-chip Mobility Shift Assay (MSA) by Cama Biosciences, Inc (Natick, Mass.) a used for measuring the kinase activity and inhibition. • 1) The 5 μL of x4 compound solution, 5 μL of x4 Substrate/ATP/Metal solution, and 10 μL of x2 kinase solution were prepared with assay buffer (20 mM HEPES, 0.01% Triton X100, 2 mM DTT, pH 7.5) and mixed and incubated in a well of polypropylene 384 well microplate for 1 or 5 hour(s)* at room temperature. (*; depending on kinase) • 2) 70 μL of Termination Buffer (QuickScout Screening Assist A; Cama Biosciences) was added to the welt • 3) The reaction mixture was applied to LabChip system (Perkin Elmer), and the product and substrate peptide peaks were separated and quantitated. • 4) The kinase reaction was evaluated by the product ratio calculated from peak heights of product (P) and substrate (S) peptides (P/(P+S)). • 5) The reaction conditions were followed according to assay protocols of Ca n Biosciences, Inc (BMA 3F, 1-5-5 Minatojima-Minamimachi, Chuo-ku, Kobe 650-0047, Japan; www.carnabio.com). • 6 Data analysis: The readout value of reaction control (complete reaction mixture) was set as a 0% inhibition, and the readout value of background (Enzyme (−)) was set as a 100% inhibition, then the percent inhibition of each test solution was calculated, […]

KIT(D816Y) = biological target: T2, KIT(D816Y) (Homo sapiens, UniProt P10721, D816Y); details: inhibitor concentration 1 μM
T2 construct: purchased Carna Biosciences
T2 sequence (P10721 26-976 D816Y): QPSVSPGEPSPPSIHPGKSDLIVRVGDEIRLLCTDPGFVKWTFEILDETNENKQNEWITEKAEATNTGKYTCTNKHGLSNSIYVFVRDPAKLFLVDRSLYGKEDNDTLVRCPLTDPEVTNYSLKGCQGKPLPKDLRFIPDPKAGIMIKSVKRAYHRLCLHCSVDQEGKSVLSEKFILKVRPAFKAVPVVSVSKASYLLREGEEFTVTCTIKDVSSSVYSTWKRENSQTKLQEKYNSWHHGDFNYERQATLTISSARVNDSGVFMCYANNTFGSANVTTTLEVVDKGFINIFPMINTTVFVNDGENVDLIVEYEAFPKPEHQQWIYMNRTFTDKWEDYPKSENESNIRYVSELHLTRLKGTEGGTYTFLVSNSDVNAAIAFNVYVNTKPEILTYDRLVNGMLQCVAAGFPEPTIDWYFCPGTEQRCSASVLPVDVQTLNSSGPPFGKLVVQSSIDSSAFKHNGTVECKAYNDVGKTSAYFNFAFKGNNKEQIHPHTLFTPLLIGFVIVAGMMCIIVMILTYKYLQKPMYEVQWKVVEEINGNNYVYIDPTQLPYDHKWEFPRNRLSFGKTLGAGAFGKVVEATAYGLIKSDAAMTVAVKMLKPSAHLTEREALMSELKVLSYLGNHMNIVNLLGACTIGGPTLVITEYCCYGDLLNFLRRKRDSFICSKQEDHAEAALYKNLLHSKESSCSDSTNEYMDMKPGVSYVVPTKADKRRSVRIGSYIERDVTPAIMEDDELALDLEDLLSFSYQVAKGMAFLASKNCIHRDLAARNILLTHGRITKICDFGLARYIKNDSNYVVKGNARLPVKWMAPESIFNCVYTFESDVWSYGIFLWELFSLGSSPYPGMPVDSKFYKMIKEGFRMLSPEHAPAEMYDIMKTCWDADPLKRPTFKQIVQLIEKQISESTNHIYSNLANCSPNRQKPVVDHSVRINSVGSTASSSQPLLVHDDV
Description: as §1

MST1 = biological target: T3, MST1 (Homo sapiens, UniProt Q13043)
T3 construct: purchased Carna Biosciences
T3 sequence (Q13043 1-487): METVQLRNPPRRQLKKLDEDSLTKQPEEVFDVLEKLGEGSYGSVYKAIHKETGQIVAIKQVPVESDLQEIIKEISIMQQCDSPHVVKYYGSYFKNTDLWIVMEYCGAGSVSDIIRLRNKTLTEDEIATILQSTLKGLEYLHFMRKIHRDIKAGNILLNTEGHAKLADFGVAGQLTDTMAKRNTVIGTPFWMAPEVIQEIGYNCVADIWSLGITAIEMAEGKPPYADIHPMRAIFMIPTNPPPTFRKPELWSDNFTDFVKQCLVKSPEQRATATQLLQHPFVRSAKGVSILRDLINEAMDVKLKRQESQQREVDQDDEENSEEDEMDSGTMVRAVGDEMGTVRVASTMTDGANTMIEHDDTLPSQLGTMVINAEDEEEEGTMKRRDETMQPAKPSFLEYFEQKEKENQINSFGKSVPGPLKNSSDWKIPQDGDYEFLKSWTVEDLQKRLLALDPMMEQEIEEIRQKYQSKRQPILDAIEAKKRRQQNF
Description: as §1

RET(M918T) = biological target: T4, RET(M918T) (Homo sapiens, UniProt P07949, M918T)
T4 construct: purchased Carna Biosciences
T4 sequence (P07949 29-1114 M918T): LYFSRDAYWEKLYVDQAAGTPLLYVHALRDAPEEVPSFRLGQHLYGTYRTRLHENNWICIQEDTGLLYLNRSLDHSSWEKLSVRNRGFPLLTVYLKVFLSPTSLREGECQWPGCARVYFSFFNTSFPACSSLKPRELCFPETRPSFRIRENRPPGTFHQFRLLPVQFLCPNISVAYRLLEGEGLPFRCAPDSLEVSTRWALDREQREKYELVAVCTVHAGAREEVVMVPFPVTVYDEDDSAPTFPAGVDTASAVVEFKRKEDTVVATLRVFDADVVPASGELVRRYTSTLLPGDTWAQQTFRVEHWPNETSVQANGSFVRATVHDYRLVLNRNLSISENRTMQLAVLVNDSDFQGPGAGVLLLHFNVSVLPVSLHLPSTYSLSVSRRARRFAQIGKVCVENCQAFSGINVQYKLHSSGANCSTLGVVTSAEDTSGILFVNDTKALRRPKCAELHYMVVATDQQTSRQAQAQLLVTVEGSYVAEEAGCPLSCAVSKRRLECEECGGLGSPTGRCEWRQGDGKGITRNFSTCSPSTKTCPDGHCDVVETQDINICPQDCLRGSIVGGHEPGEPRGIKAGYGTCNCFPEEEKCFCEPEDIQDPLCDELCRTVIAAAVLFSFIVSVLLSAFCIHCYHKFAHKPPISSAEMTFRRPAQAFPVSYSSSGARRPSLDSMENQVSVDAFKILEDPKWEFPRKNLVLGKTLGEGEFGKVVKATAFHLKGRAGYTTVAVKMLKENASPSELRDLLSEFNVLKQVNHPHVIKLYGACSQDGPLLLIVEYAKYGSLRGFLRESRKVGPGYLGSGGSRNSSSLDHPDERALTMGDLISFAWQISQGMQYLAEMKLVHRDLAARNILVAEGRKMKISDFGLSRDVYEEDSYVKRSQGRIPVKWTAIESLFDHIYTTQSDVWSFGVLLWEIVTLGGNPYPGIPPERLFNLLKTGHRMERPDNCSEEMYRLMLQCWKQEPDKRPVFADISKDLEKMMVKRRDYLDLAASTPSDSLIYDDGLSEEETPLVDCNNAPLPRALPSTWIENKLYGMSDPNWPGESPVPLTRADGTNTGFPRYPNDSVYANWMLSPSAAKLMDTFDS
Description: as §1

MST4 = biological target: T5, MST4 (Homo sapiens, UniProt Q9P289); details: inhibitor concentration 1 μM
T5 construct: purchased Carna Biosciences
Description: as §1

MAP2K4 = biological target: T6, MAP2K4 (Homo sapiens, UniProt P45985); details: inhibitor concentration 1 μM
T6 construct: purchased Carna Biosciences
Description: as §1

DDR2 = biological target: T7, DDR2 (Homo sapiens, UniProt Q16832)
T7 construct: purchased Carna Biosciences
T7 sequence (Q16832 22-855): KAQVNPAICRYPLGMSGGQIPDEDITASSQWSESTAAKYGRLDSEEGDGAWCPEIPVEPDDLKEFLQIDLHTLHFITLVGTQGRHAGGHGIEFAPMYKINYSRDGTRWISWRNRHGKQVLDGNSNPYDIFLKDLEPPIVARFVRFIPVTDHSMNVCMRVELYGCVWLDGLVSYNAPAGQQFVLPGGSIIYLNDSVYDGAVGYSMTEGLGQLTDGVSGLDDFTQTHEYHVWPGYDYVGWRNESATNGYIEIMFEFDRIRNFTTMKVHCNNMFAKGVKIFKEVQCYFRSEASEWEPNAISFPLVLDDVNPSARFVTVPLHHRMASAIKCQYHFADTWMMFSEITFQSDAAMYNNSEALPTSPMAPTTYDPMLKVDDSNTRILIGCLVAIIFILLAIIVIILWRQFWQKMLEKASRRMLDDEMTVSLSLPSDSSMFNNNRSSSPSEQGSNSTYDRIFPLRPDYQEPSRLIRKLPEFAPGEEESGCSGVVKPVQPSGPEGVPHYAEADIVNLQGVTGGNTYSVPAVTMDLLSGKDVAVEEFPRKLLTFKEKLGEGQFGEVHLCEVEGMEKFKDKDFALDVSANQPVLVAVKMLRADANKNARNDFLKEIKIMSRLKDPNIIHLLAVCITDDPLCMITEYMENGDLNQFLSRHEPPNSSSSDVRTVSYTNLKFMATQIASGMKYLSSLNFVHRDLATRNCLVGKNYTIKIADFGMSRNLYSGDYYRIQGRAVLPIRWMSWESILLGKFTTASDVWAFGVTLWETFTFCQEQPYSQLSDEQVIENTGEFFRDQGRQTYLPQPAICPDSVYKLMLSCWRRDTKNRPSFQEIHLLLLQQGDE
Description: as §1

RET(Y791F) = biological target: T8, RET(Y791F) (Homo sapiens, UniProt P07949, Y791F)
T8 construct: purchased Carna Biosciences
T8 sequence (P07949 29-1114 Y791F): as the sequence (P07949 29-1114 M918T) above, with Y763F, T890M counted along it
Description: as §1

ACK = biological target: T9, ACK (Homo sapiens, UniProt Q07912)
T9 construct: purchased Carna Biosciences
T9 sequence (Q07912 whole entry): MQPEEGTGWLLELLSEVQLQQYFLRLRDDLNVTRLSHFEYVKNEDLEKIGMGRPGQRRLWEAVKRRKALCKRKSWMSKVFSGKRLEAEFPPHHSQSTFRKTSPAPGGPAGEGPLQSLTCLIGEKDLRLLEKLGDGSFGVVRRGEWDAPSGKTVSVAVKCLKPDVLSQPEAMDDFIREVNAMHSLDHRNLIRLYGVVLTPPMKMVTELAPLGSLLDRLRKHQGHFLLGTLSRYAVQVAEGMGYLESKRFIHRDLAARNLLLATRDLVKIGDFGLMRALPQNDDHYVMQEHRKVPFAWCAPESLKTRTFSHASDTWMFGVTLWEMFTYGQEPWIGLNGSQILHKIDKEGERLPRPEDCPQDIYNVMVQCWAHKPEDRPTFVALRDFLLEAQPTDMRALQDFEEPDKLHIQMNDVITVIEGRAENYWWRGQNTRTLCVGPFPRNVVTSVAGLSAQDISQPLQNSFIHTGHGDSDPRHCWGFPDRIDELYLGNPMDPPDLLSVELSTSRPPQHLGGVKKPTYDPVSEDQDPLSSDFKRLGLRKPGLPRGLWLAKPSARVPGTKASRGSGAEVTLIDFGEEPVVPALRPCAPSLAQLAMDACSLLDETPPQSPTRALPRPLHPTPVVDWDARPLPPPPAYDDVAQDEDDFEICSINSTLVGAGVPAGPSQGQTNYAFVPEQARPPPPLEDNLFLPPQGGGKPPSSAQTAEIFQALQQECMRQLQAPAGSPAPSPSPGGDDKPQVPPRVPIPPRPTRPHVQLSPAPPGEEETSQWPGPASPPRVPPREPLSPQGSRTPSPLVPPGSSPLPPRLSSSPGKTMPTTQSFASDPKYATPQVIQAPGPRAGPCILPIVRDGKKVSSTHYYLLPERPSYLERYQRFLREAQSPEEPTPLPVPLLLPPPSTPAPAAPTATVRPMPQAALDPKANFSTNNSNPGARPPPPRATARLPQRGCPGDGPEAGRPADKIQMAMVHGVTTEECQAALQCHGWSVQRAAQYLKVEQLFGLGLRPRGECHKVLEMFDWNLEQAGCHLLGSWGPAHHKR
Description: as §1

CSK = biological target: T10, CSK (Homo sapiens, UniProt P41240)
T10 construct: purchased Carna Biosciences
Description: as §1

YES(T348I) = biological target: T11, YES(T348I) (Homo sapiens, UniProt P07947, T348I); details: inhibitor concentration 1 μM
T11 construct: purchased Carna Biosciences
T11 sequence (P07947 whole entry T348I): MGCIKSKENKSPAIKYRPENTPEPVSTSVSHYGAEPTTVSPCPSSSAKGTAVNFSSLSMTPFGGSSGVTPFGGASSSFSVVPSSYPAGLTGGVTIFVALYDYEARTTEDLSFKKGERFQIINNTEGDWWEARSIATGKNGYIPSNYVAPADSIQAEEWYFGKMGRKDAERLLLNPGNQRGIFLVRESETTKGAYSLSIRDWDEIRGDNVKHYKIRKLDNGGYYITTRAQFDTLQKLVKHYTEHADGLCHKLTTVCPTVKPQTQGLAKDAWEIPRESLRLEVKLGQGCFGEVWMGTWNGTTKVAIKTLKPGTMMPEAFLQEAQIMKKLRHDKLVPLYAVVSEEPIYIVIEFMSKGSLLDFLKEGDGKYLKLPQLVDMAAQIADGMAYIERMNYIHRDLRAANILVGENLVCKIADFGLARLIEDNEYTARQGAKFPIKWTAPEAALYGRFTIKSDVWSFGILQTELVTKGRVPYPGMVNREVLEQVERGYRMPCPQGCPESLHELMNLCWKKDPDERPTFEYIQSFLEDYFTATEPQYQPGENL
Description: as §1

FYN(isoform a) = biological target: T12, FYN(isoform a) (Homo sapiens, UniProt P06241)
T12 construct: purchased Carna Biosciences
T12 sequence (P06241 whole entry, canonical isoform): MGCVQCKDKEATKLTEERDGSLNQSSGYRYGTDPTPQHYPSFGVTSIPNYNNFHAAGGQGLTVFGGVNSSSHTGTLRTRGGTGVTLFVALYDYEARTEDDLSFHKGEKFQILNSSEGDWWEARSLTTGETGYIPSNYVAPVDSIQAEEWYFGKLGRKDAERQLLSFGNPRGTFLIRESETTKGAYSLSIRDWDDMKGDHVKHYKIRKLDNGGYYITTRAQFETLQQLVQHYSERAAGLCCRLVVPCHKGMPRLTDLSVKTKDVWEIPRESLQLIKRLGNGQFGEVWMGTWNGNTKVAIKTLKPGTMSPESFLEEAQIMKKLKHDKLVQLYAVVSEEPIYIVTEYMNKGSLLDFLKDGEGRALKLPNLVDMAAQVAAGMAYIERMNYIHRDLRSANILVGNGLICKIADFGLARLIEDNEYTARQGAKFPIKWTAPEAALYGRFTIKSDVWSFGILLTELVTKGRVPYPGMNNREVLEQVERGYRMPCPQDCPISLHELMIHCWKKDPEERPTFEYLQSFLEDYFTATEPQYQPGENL
Description: as §1

YES = biological target: T13, YES (Homo sapiens, UniProt P07947)
T13 construct: purchased Carna Biosciences
T13 sequence (P07947 whole entry): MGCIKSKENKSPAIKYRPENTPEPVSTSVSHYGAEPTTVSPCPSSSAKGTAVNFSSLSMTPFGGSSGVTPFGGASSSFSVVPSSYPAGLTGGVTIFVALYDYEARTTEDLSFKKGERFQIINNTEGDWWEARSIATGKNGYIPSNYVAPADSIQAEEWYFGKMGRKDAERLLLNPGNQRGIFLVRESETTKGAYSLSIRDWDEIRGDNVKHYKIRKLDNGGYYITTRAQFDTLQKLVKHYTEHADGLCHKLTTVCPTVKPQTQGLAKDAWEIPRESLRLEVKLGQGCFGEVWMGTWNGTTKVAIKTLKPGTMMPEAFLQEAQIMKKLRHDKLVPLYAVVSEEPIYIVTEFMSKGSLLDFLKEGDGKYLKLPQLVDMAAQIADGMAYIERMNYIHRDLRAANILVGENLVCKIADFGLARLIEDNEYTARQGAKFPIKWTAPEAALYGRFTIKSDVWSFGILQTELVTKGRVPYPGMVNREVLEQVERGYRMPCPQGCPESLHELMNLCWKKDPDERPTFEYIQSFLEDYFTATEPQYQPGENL
Description: as §1

[1] = inhibitor concentration 0.01 μM

inhibition at 1 µM (PKD2): < 50% | inhibition at 1 µM (KIT(D816Y)): < 50% | inhibition at 0.01 µM (MST1; [1]): < 30% | inhibition at 0.1 µM (MST1; inhibitor concentration 0.1 μM): > 50% | inhibition at 1 µM (MST1; inhibitor concentration 1 μM): > 50% | inhibition at 0.01 µM (RET(M918T); [1]): < 30% | inhibition at 0.1 µM (RET(M918T); inhibitor concentration 0.1 μM): < 50% | inhibition at 1 µM (RET(M918T); inhibitor concentration 1 μM): > 50% | inhibition at 1 µM (MST4): < 50% | inhibition at 1 µM (MAP2K4): < 50% | inhibition at 0.01 µM (DDR2; [1]): < 30% | inhibition at 0.1 µM (DDR2; inhibitor concentration 0.1 μM): > 50% | inhibition at 1 µM (DDR2; inhibitor concentration 1 μM): > 50% | inhibition at 0.01 µM (RET(Y791F); [1]): < 30% | inhibition at 0.1 µM (RET(Y791F); inhibitor concentration 0.1 μM): < 50% | inhibition at 1 µM (RET(Y791F); inhibitor concentration 1 μM): > 50% | inhibition at 0.01 µM (ACK; [1]): < 30% | inhibition at 0.1 µM (ACK; inhibitor concentration 0.1 μM): < 50% | inhibition at 1 µM (ACK; inhibitor concentration 1 μM): > 50% | inhibition at 0.01 µM (CSK; [1]): < 30% | inhibition at 0.1 µM (CSK; inhibitor concentration 0.1 μM): > 50% | inhibition at 1 µM (CSK; inhibitor concentration 1 μM): > 50% | inhibition at 1 µM (YES(T348I)): > 50% | inhibition at 0.01 µM (FYN(isoform a); [1]): < 30% | inhibition at 0.1 µM (FYN(isoform a); inhibitor concentration 0.1 μM): < 50% | inhibition at 1 µM (FYN(isoform a); inhibitor concentration 1 μM): > 50% | inhibition at 0.01 µM (YES; [1]): < 30% | inhibition at 0.1 µM (YES; inhibitor concentration 0.1 μM): > 50% | inhibition at 1 µM (YES; inhibitor concentration 1 μM): > 50%
SMILES: O=C(c1c(F)ccc(NS(=O)(=O)CCCO)c1F)c1c[nH]c2ncc(-c3ccc(Cl)cc3)cc12 [200-17, N-[3-[5-(4-chlorophenyl)-1H-pyrrolo[2,3-b]pyridine-3-carbonyl]-2,4-difluorophenyl]-3-hydroxypropane-1-sulfonamide]
